# US20200369728A1, “PEPTIDOMIMETIC MACROCYCLES AND USES THEREOF” (Aileron Therapeutics, Inc., priority 2015, published 2020)
# pEC50, pIC50: −log10 of the molar value. Values joined by “and” are separate entries in the source; they are usually repeats but may differ in a detail not shown here. Equal entries are not always repeated. Bridge positions count the residues as written; N and C are the ends. Square brackets hold non-standard residues; d marks the D form. Peptide text beside a SMILES is read from it. Phe(4-COOH) = N[C@@H](Cc1ccc(C(=O)O)cc1)C(=O)O; R8 = C=CCCCCCC[C@@](C)(N)C(=O)O; Cba = N[C@@H](CC1CCC1)C(=O)O; S5 = C=CCCC[C@](C)(N)C(=O)O
# Legend:
# [1] = target: MDM2 (In-house, 41 kD) (UniProt Q00987); assay: competitive fluorescence polarization, displacement of FAM-labeled linear peptide from MDM2; grade decoded by the scale of Table 4
# [2] = target: T1, MDMX (In-house, 40 kD) (UniProt O15151); assay: competitive fluorescence polarization, displacement of FAM-labeled linear peptide from MDMX; grade decoded by the scale of Table 4
# T1 sequence (looked up): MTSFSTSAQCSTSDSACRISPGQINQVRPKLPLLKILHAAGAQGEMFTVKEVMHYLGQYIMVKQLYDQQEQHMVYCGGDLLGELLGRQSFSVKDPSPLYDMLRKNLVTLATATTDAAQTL
# [3] = Circular dichroism (CD) analysis of alpha-helicity; assay type: physicochemical; settings: for Molar Ellipticity TFE − Molar Ellipticity Benign / Molar Ellipticity 50% TFE (222 in 50% TFE) / Molar Ellipticity Benign (222 in 0% TFE): 222 nm; for Molar Ellipticity 50% TFE (222 in 50% TFE): CD buffer with 50% TFE; for Molar Ellipticity 50% TFE (222 in 50% TFE) / Molar Ellipticity Benign (222 in 0% TFE): 0.05 mg/ml, 4° C.; for Molar Ellipticity Benign (222 in 0% TFE): benign CD buffer (20 mM phosphoric acid, pH 2); for % Helix benign compared to 50% TFE parent (CD): benign buffer
# Procedure: Peptide solutions were analyzed by CD spectroscopy using a Jasco J-815 spectropolarimeter (Jasco Inc., Easton, Md.) with the Jasco Spectra Manager Ver. 2 system software. A Peltier temperature controller was used to maintain temperature control of the optical cell. Results are expressed as mean molar ellipticity (deg cm^2 dmol^−1) as calculated from the equation [0]=θobs·MRW/10*l*c where θobs is the observed ellipticity in millidegrees, MRW is the mean residue weight of the peptide (peptide molecular weight/number of residues), 1 is the optical path length of the cell in centimeters, and c is the peptide concentration in mg/ml. Peptide concentrations were determined by amino acid analysis. Stock solutions of peptides were prepared in benign CD buffer (20 mM phosphoric acid, pH 2). The stocks were used to prepare peptide solutions of 0.05 mg/ml in either benign CD buffer or CD buffer with 50% trifluoroethanol (TFE) for analyses in a 10 mm pathlength cell. Variable wavelength measurements of peptide solutions were scanned at 4° C. from 195 to 250 nm, in 0.2 nm increments, and a scan rate 50 nm per minute. The average of six scans was reported.
# [4] = tested on: RKO; assay: Cell viability assay (MTT), RKO; settings: read-out: RKO EC50 (72 h)
# [5] = tested on: Caspase 3; assay: Caspase 3 detection assay in SJSA1 cells; assay type: cell-based; settings: SJSA1, 48 h, Caspase 3 activation over DMSO-treated cells
# [6] = tested on: SJSA-1; assay: Cell viability assay (MTT), SJSA-1; settings: read-out: SJSA-1 EC50 (72 h); 72 h, MTT
# [7] = tested on: SJSA-1 cells; assay: Cell lysis by peptidomimetic macrocycles (LDH release); assay type: cell-based; settings: SJSA-1, 1 h
# Procedure, shortened: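 SJSA-1 cells plated the day before, switched to RPMI with 1% FBS, then exposed 1 h at 37 °C to macrocycle at final 50 μM to 6.25 μM in 0.5% DMSO. LDH released into the supernatant was measured by kit. Controls: 0.5% DMSO (non-lytic), 10 μM melittin and 1% Triton X-100 (lytic).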
# [8] = tested on: DOHH-2; assay: WST-1 / MTT cell viability, DOHH-2; assay type: cell-based, human; settings: for pIC50: Homo sapiens, DOHH-2, 72 h
# Procedure: Initially, various DOHH-2 cell numbers were plated and evaluated 3-7 days later to determine the optimal number of cells to be plated and treatment duration.
# A drug combination index plot was used to assess the synergistic, additive, or antagonistic properties of each combination treatment. […] Combination index (CI) values were calculated using the CompuSyn software. The data were expressed as log(CI).
# The anticancer activity of the combination treatment was assessed based on the order of addition of the drugs.
# [9] = MCF-7 breast cancer xenograft study, body weight and deaths; assay type: in vivo, mice; settings: […] three times per week iv, 10 mice per group
# Description: A negative control stapled peptide.
# [10] = DOHH-2, sequential treatment, 72 hrs
# MDM2 (In-house, 41 kD), sequence (Q00987 1-125 limits assumed): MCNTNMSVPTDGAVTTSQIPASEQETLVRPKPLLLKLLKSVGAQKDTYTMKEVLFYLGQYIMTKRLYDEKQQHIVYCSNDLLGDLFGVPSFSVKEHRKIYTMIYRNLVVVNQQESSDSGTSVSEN
compound,measurement,setting,value
"SP753, Ac-tawy$r5nf4CF3e$r5llr-NH2 (peptide)",pIC50,[1],< 8.00 and > 7.00
same,pIC50,[2],< 6.00
CC[C@H](C)[C@H](NC(=O)[C@H](C)NC(=O)[C@H](C)NC(=O)[C@]1(C)CCC/C=C/CCCCCC[C@@](C)(NC(=O)[C@H](Cc2ccccc2)NC(=O)[C@@H](NC(=O)[C@H](CC(C)C)NC(C)=O)[C@@H](C)O)C(=O)N[C@@H](C)C(=O)N[C@@H](Cc2ccc(O)cc2)C(=O)N[C@@H](Cc2c[nH]c3ccccc23)C(=O)N[C@@H](C)C(=O)N[C@@H](CCC(N)=O)C(=O)N[C@@H](CC(C)C)C(=O)N1)C(=O)N[C@H](C)C(N)=O [compound 71],% Helix 50% TFE compared to 50% TFE parent (CD),[3],123.7%
same,Molar Ellipticity TFE − Molar Ellipticity Benign,[3],−17835.9 deg cm^2 dmol^−1
same,Molar Ellipticity 50% TFE (222 in 50% TFE),[3],−17957 deg cm^2 dmol^−1
same,Molar Ellipticity Benign (222 in 0% TFE),[3],−121.2 deg cm^2 dmol^−1
same,% Helix benign compared to 50% TFE parent (CD),[3],0.8%
same,pEC50,[4],> 5.30
same,caspase 0.3 μM,[5],0.95
same,caspase 1 μM,[5],1.02
same,caspase 3 μM,[5],3.68
same,caspase 10 μM,[5],14.72
same,caspase 30 μM,[5],23.52
same,pEC50,[6],> 5.30
same,6.25 μM % Lysed cells (1 h LDH),[7],0%
same,25 μM % Lysed cells (1 h LDH),[7],0%
same,50 μM % Lysed cells (1 h LDH),[7],0%
"SP752, Ac-t$r5wya$r5f4CF3ekllr-NH2 (peptide)",pIC50,[1],< 7.00 and > 6.00
same,pIC50,[2],< 6.00
"O=P1(N(CCCl)CCCl)NCCCO1 (centres unmarked) [CTX, cyclophosphamide, reference compound]","order of addition: effect on cell growth, AP1 and CTX",[8]; [10],suppressed DOHH-2 cell growth with or without AP1
same,pIC50,"[8]; CTX + 0.07 μM AP1, DOHH-2, 72 hours",3.39
same,pIC50,"[8]; CTX + 0.2 μM AP1, DOHH-2, 72 hours",3.76
same,pIC50,"[8]; CTX + 0.6 μM AP1, DOHH-2, 72 hours",3.59
same,pIC50,[8]; CTX alone,2.70
"SP755, Ac-tawyanf4CF3e$r5llr$r5a-NH2 (peptide)",pIC50,[1],> 8.00
same,pIC50,[2],< 6.00
"SP756, Ac-t$s8wyanf4CF3e$r5llr-NH2 (peptide)",pIC50,[1],< 8.00 and > 7.00
same,pIC50,[2],< 6.00
"SP758, Ac-tawya$s8f4CF3ekllr$r5a-NH2 (peptide)",pIC50,[1],< 8.00 and > 7.00
same,pIC50,[2],< 6.00
"SP754, Ac-tawya$r5f4CF3ek$r5lr-NH2 (peptide)",pIC50,[1],< 7.00 and > 6.00
same,pIC50,[2],< 6.00
CCCC[C@H](NC(=O)[C@H](C)NC(=O)[C@H](C)NC(=O)[C@]1(C)CCC/C=C/CCCCCC[C@@](C)(NC(=O)[C@H](Cc2ccccc2)NC(=O)[C@@H](NC(=O)[C@H](CC(C)C)NC(C)=O)[C@@H](C)O)C(=O)N[C@@H](C)C(=O)N[C@@H](Cc2ccc(O)cc2)C(=O)N[C@@H](Cc2c[nH]c3ccccc23)C(=O)N[C@@H](C)C(=O)N[C@@H](CCC(N)=O)C(=O)N[C@@H](CC(C)C)C(=O)N1)C(=O)N[C@@H](C)C(N)=O [compound 69],% Helix 50% TFE compared to 50% TFE parent (CD),[3],148.2%
same,Molar Ellipticity TFE − Molar Ellipticity Benign,[3],−21407.1 deg cm^2 dmol^−1
same,Molar Ellipticity 50% TFE (222 in 50% TFE),[3],−21509.7 deg cm^2 dmol^−1
same,Molar Ellipticity Benign (222 in 0% TFE),[3],−102.6 deg cm^2 dmol^−1
same,% Helix benign compared to 50% TFE parent (CD),[3],0.7%
same,pEC50,[4],> 5.30
same,caspase 0.3 μM,[5],4.34
same,caspase 1 μM,[5],9.51
same,caspase 3 μM,[5],16.39
same,caspase 10 μM,[5],26.59
same,caspase 30 μM,[5],26.11
same,pEC50,[6],> 5.30
same,6.25 μM % Lysed cells (1 h LDH),[7],1%
same,25 μM % Lysed cells (1 h LDH),[7],−0.5%
same,50 μM % Lysed cells (1 h LDH),[7],5%
CC[C@H](C)[C@H](NC(=O)[C@H](C)NC(=O)[C@H](C)NC(=O)[C@]1(C)CCCC=CCCCCCC[C@@](C)(NC(=O)[C@H](Cc2ccccc2)NC(=O)[C@@H](NC(=O)[C@H](CC(C)C)NC(C)=O)[C@@H](C)O)C(=O)N[C@@H](CCC(=O)O)C(=O)N[C@@H](Cc2ccc(C(=O)O)cc2)C(=O)N[C@@H](Cc2c[nH]c3ccccc23)C(=O)N[C@@H](C)C(=O)N[C@@H](CCC(N)=O)C(=O)N[C@@H](CC2CCC2)C(=O)N1)C(=O)N[C@H](C)C(N)=O [SP249] (Ac-LTF[R8]E[Phe(4-COOH)]WAQ[Cba][S5]AAI[dA]-NH2; staple 4-11),mice died during treatment,[9],4
"CC[C@]1(O)C[C@H]2CN(CCc3c([nH]c4ccccc34)[C@@](C(=O)OC)(c3cc4c(cc3OC)N(C=O)[C@H]3[C@@](O)(C(=O)OC)[C@H](OC(C)=O)[C@]5(CC)C=CCN6CC[C@]43[C@@H]65)C2)C1 [VCR, vincristine, reference compound]","order of addition: effect on cell growth, AP1 and VCR",[8]; [10],suppressed DOHH-2 cell growth with or without AP1
CC(=O)N[C@@H](CC(C)C)C(=O)N[C@H](C(=O)N[C@@H](Cc1ccccc1)C(=O)N[C@]1(C)CCCCCC/C=C/CCC[C@@](C)(C(=O)N[C@@H](C)C(=O)N[C@@H](C)C(=O)N[C@@H](C)C(=O)N[C@@H](C)C(=O)N[C@@H](C)C(=O)N[C@H](C)C(N)=O)NC(=O)[C@H](CC(C)C)NC(=O)[C@H](CCC(N)=O)NC(=O)[C@H](C)NC(=O)[C@H](Cc2c[nH]c3ccccc23)NC(=O)[C@H](Cc2ccc(O)cc2)NC(=O)[C@H](CCC(=O)O)NC1=O)[C@@H](C)O [compound 331],pEC50,[4],> 5.30
same,caspase 0.3 μM,[5],4.5
same,caspase 1 μM,[5],8
same,caspase 3 μM,[5],11
same,caspase 10 μM,[5],14.5
same,caspase 30 μM,[5],30.5
same,pEC50,[6],> 5.30
same,6.25 μM % Lysed cells (1 h LDH),[7],0%
same,25 μM % Lysed cells (1 h LDH),[7],0%
same,50 μM % Lysed cells (1 h LDH),[7],0%
